Values quoted from earlier work as cited in patent publication US20020146694A1, “Functionating genomes with cross-species coregulation” (priority 2001, published 2002).

System: wild type yeast cells
Details: 10 micrograms/ml

In the case of `C[C@H]1c2cccc(O)c2C(=O)C2=C(O)[C@]3(O)C(=O)C(C(N)=O)=C(O)[C@@H](N(C)C)[C@@H]3[C@@H](O)[C@@H]21` [doxycycline], the “effect on the growth rate” value is given as “no significant effect”.
